For four compounds, Activity results are on record in ChEMBL document CHEMBL5370693, “Kinases Controlling Stability of the Oncogenic MYCN Protein” (ACS Med Chem Lett, 2023).

For assay [1], the system named is Phosphatidylinositol 4,5-bisphosphate 3-kinase catalytic subunit alpha isoform (Homo sapiens), P42336 [E545K]. Briefly: Inhibition of PIK3CA E545K mutant (unknown origin) assessed as remaining activity at 15 uM incubated for 1 hr by KINOMEscan competitive binding assay relative to control.
The target in assay [2] is T1, Serine/threonine-protein kinase Chk1 (Homo sapiens) (UniProt O14757).
T1 sequence (whole entry): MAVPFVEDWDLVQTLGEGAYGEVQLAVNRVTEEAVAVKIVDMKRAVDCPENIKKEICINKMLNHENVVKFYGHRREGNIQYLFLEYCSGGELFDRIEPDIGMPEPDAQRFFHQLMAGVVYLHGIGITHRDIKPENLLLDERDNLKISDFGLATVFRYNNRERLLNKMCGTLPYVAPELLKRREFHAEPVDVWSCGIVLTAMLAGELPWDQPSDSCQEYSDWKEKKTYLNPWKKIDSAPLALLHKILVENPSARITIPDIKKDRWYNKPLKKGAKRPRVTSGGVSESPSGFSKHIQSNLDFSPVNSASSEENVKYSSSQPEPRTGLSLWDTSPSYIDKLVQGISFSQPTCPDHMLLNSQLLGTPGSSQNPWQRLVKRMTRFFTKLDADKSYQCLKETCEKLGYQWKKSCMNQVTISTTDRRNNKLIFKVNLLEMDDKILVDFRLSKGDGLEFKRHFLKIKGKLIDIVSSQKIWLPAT
Briefly: Inhibition of CHEK1 (unknown origin) assessed as remaining activity at 15 uM incubated for 1 hr by KINOMEscan competitive binding assay relative to control.

For assay [3], the target named is Casein kinase II subunit alpha (Homo sapiens) (UniProt P68400). The assay is described as follows: Inhibition of CSNK2A1 (unknown origin) assessed as remaining activity at 15 uM incubated for 1 hr by KINOMEscan competitive binding assay relative to control.
Assay [4] has as its target T2, Phosphatidylinositol 3-kinase C2 domain-containing subunit gamma (Homo sapiens) (UniProt O75747).
T2 sequence (whole entry): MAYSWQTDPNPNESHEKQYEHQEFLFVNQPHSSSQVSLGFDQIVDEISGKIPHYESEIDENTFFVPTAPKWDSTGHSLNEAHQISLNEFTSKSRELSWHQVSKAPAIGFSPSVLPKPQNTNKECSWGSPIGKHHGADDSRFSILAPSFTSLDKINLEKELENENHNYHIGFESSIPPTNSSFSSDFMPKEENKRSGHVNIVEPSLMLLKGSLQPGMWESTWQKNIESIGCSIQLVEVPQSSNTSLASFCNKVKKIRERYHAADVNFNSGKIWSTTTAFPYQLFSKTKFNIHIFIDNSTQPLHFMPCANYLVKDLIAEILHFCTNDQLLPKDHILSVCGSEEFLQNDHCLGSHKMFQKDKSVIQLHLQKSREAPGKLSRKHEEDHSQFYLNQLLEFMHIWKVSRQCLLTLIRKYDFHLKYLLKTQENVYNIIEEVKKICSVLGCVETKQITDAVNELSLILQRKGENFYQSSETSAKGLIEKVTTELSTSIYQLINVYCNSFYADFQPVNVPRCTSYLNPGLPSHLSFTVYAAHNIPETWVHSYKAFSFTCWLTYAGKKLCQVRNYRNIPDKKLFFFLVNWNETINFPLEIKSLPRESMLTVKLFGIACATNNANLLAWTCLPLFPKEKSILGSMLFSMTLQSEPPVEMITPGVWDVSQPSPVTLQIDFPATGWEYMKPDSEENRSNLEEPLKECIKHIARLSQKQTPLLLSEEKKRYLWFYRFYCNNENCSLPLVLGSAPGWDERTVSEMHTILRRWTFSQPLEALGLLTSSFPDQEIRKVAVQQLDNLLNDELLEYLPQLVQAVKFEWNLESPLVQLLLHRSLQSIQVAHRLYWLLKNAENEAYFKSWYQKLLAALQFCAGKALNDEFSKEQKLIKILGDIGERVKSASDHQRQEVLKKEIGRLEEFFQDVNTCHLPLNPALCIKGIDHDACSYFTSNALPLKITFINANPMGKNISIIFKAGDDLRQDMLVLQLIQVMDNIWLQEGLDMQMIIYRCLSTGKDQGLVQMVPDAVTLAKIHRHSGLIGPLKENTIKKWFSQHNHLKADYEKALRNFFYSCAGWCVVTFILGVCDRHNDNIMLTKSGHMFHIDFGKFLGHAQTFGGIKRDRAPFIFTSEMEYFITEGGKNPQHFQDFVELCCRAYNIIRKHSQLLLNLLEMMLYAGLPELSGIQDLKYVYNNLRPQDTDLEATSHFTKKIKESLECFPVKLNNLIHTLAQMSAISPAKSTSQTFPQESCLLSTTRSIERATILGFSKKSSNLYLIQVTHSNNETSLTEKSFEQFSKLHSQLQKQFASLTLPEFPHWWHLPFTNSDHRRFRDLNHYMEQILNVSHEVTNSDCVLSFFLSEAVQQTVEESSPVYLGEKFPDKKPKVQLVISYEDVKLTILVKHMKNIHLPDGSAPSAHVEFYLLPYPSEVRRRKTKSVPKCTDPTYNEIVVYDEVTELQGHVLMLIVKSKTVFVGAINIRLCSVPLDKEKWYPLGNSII
The assay is described as follows: Inhibition of PIK3C2G (unknown origin) assessed as remaining activity at 15 uM incubated for 1 hr by KINOMEscan competitive binding assay relative to control.

Assay [5] deals with Phosphatidylinositol 4,5-bisphosphate 3-kinase catalytic subunit gamma isoform (Homo sapiens) (UniProt P48736). Briefly: Inhibition of PIK3CG (unknown origin) assessed as remaining activity at 10 uM incubated for 1 hr by KINOMEscan competitive binding assay relative to control.
The test system of assay [6] is Phosphatidylinositol 4,5-bisphosphate 3-kinase catalytic subunit alpha isoform (Homo sapiens), P42336 [E542K]. Briefly: Inhibition of PIK3CA E542K mutant (unknown origin) assessed as remaining activity at 10 uM incubated for 1 hr by KINOMEscan competitive binding assay relative to control.
Assay [7] addresses Casein kinase II subunit alpha' (Homo sapiens) (UniProt P19784). Briefly: Inhibition of CSNK2A2 (unknown origin) assessed as remaining activity at 5 uM incubated for 1 hr by KINOMEscan competitive binding assay relative to control.
Assay [8] concerns the target Phosphatidylinositol 4,5-bisphosphate 3-kinase catalytic subunit gamma isoform (Homo sapiens) (UniProt P48736). The assay is described as follows: Inhibition of PIK3CG (unknown origin) assessed as remaining activity at 5 uM incubated for 1 hr by KINOMEscan competitive binding assay relative to control.
Assay [9] relates to Phosphatidylinositol 4,5-bisphosphate 3-kinase catalytic subunit alpha isoform (Homo sapiens), P42336 [E542K]. Briefly: Inhibition of PIK3CA E542K mutant (unknown origin) assessed as remaining activity at 5 uM incubated for 1 hr by KINOMEscan competitive binding assay relative to control.

Turning to `CC(C)CCOc1ccc2c(=O)c(-c3ccc(O)c(O)c3)coc2c1`, the Activity in assay [1] was 79%; in assay [2] it was 71%; in assay [3], 44%; in assay [4], 75%.

`CC(C)CC(=O)Oc1ccc2occ(-c3ccc(O)c(O)c3)c(=O)c2c1`: the Activity in [1] was 66%; in assay [2], 88%; in assay [3], 14%; in [4] it was 57%.

As to `NC(=O)Nc1cc(-c2cccc(F)c2)sc1C(=O)N[C@H]1CCCNC1`, the Activity was found to be 77% in assay [5] and 90% in [6].

For `O=c1[nH]c2ccc(Cl)cc2c(N[C@@H]2CN3CCC2CC3)c1-c1nc2ccccc2[nH]1`, the values for the Activity in assay [7], in assay [8] and in assay [9] were 0.35%, 21% and 93%, respectively.
